Bridge positions count the residues as written; N and C are the ends. Peptide text beside a SMILES is read from it.
Columns and labels:
PC-3 = experiment: Cytotoxicty against human PC3 cells after 24 hrs by MTT assay; format: functional, cell-based; details: PC-3, 24 h
HeLa = experiment: Cytotoxicty against human HeLa cells after 24 hrs by MTT assay; format: functional, cell-based
Erythrocyte = experiment: Hemolytic activity in human red blood cells after 1 hr; format: ADME, cell-based
HUVEC = experiment: Cytotoxicty against HUVEC after 24 hrs by MTT assay; format: cell-based; details: Homo sapiens

Row | SMILES | IC50 (PC-3) [nM] | IC50 (HeLa) [nM] | IC50 (Erythrocyte) [nM] | IC50 (HUVEC) [nM]
1 | CC[C@H](C)[C@@H]1NC(=O)[C@H](C)NC(=O)[C@H](C)NC(=O)[C@H](CO)NC(=O)[C@H]([C@@H](C)CC)NC(=O)[C@@H]2CSSC[C@@H]3NC(=O)[C@H](C(C)C)NC(=O)[C@H](CCCCN)NC(=O)[C@H](CO)NC(=O)[C@H](CCCCN)NC(=O)[C@@H]4CSSC[C@H](NC(=O)[C@H](CO)NC(=O)[C@H](CCC(=O)O)NC(=O)CNC(=O)[C@H](CSSC[C@H](NC(=O)CNC1=O)C(=O)N[C@@H](CO)C(=O)N4)NC(=O)[C@@H]1CCCN1C(=O)[C@H]([C@@H](C)CC)NC(=O)CNC(=O)[C@H](CC(N)=O)NC(=O)[C@H](CCCNC(=N)N)NC(=O)[C@H](Cc1ccc(O)cc1)NC3=O)C(=O)N[C@@H](C(C)C)C(=O)N[C@@H](Cc1c[nH]c3ccccc13)C(=O)N[C@@H]([C@@H](C)CC)C(=O)N1CCC[C@H]1C(=O)N2 [CYCLOVIOLACIN O13] (cyclo(AAIGCSCKSKVCYRNGIPCGESCVWIPCIS); disulfide 5-19, 7-23, 12-28) | 600 | 700 | 14900 | 500
2 | CC[C@H](C)[C@@H]1NC(=O)[C@H](C)NC(=O)[C@H](CO)NC(=O)[C@H](CO)NC(=O)[C@H]([C@@H](C)CC)NC(=O)[C@@H]2CSSC[C@@H]3NC(=O)[C@H](C(C)C)NC(=O)[C@H](CCCCN)NC(=O)[C@H](CO)NC(=O)[C@H](CCCCN)NC(=O)[C@@H]4CSSC[C@H](NC(=O)[C@H](CO)NC(=O)[C@H](CCC(=O)O)NC(=O)CNC(=O)[C@H](CSSC[C@H](NC(=O)CNC1=O)C(=O)N[C@@H](CO)C(=O)N4)NC(=O)[C@@H]1CCCN1C(=O)[C@H]([C@@H](C)CC)NC(=O)CNC(=O)[C@H](CC(N)=O)NC(=O)[C@H](CCCNC(=N)N)NC(=O)[C@H](Cc1ccc(O)cc1)NC3=O)C(=O)N[C@@H](C(C)C)C(=O)N[C@@H](Cc1c[nH]c3ccccc13)C(=O)N[C@@H]([C@@H](C)CC)C(=O)N1CCC[C@H]1C(=O)N2 (cyclo(AIGCSCKSKVCYRNGIPCGESCVWIPCISS); disulfide 4-18, 6-22, 11-27) | 800 | 700 |  | 600
3 | CC[C@H](C)[C@@H]1NC(=O)[C@@H]2CSSC[C@@H]3NC(=O)[C@H](C(C)C)NC(=O)[C@H](CCCCN)NC(=O)[C@H](CO)NC(=O)[C@H](CCCCN)NC(=O)[C@@H]4CSSC[C@H](NC(=O)[C@H](CO)NC(=O)[C@H](CCC(=O)O)NC(=O)CNC(=O)[C@H](CSSC[C@H](NC(=O)CNC(=O)[C@H](CC(C)C)NC(=O)[C@H](C)NC(=O)[C@H](C)NC(=O)[C@H]([C@@H](C)O)NC1=O)C(=O)N[C@H](CO)C(=O)N4)NC(=O)[C@@H]1CCCN1C(=O)[C@H]([C@@H](C)CC)NC(=O)CNC(=O)[C@H](CC(N)=O)NC(=O)[C@H](CCCNC(=N)N)NC(=O)[C@H](Cc1ccc(O)cc1)NC3=O)C(=O)N[C@@H](C(C)C)C(=O)N[C@@H](Cc1ccc(O)cc1)C(=O)N[C@@H]([C@@H](C)CC)C(=O)N1CCC[C@H]1C(=O)N2 | 500 | 500 | 11100 | 400
4 | CC(C)C[C@@H]1NC(=O)CNC(=O)[C@H](CC(N)=O)NC(=O)[C@H](CCCNC(=N)N)NC(=O)[C@H]([C@@H](C)O)NC(=O)[C@@H]2CSSC[C@@H]3NC(=O)[C@H]([C@@H](C)O)NC(=O)CNC(=O)CNC(=O)[C@H](C(C)C)NC(=O)[C@@H]4CSSC[C@H](NC(=O)[C@H](CO)NC(=O)[C@H](CSSC[C@H](NC(=O)[C@H](C(C)C)NC(=O)[C@@H]5CCCN5C1=O)C(=O)NCC(=O)N[C@@H](CCC(=O)O)C(=O)N[C@@H]([C@@H](C)O)C(=O)N4)NC(=O)CNC(=O)[C@@H]1CCCN1C(=O)[C@H]([C@@H](C)O)NC(=O)[C@H](CC(N)=O)NC3=O)C(=O)N[C@@H](CO)C(=O)N[C@@H](Cc1c[nH]c3ccccc13)C(=O)N1CCC[C@H]1C(=O)N[C@@H](C(C)C)C(=O)N2 | 3600 | 5200 | ≥ 50000 | 4000
5 | CC[C@H](C)[C@@H]1NC(=O)[C@@H]2CSSC[C@@H]3NC(=O)[C@H](C(C)C)NC(=O)[C@H](CCCCN)NC(=O)[C@H](CO)NC(=O)[C@H](CCCCN)NC(=O)[C@@H]4CSSC[C@H](NC(=O)[C@H](CO)NC(=O)[C@H](CCC(=O)O)NC(=O)CNC(=O)[C@H](CSSC[C@H](NC(=O)CNC(=O)[C@@H](CC(C)C)NC(=O)[C@H](CC(C)C)NC(=O)[C@H]([C@@H](C)O)NC(=O)[C@H](CO)NC1=O)C(=O)N[C@@H](CO)C(=O)N4)NC(=O)[C@@H]1CCCN1C(=O)[C@H]([C@@H](C)CC)NC(=O)[C@H](C(C)C)NC(=O)CNC(=O)[C@H](CC(N)=O)NC(=O)[C@H](CCCNC(=N)N)NC(=O)[C@H](Cc1ccc(O)cc1)NC3=O)C(=O)N[C@@H](C(C)C)C(=O)N[C@@H](Cc1ccccc1)C(=O)N[C@@H]([C@@H](C)CC)C(=O)N1CCC[C@H]1C(=O)N2 | 1100 | 1800 |  | 1200

Reference: ChEMBL document CHEMBL4619762, “Exploring the Sequence Diversity of Cyclotides from Vietnamese Viola Species” (J Nat Prod, 2020)
